Publication PMC12203311, “Design, synthesis, in silico and in vitro evaluation of pyrrole–indole hybrids as dual tubulin and aromatase inhibitors with potent anticancer activities” (RSC Advances, 2025)

Assays:
CCRF-CEM = assay: NCI60 five-dose screen; format: cell-based; conditions: Homo sapiens, leukemia; for CC50: read-out: LC50 (the source's name)
HL-60 (TB) = assay: NCI60 five-dose screen; format: cell-based; conditions: Homo sapiens, leukemia; for CC50: read-out: LC50 (the source's name)
K-562 = assay: NCI60 five-dose screen; format: cell-based; conditions: Homo sapiens, K562, K-562, leukemia; for CC50: read-out: LC50 (the source's name)
RPMI-8226 = assay: NCI60 five-dose screen; format: cell-based; conditions: Homo sapiens, RPMI-8226, leukemia; for CC50: read-out: LC50 (the source's name)
NCI-H23 = assay: NCI60 five-dose screen; format: cell-based; conditions: Homo sapiens, NCI-H23, NSC lung cancer; for CC50: read-out: LC50 (the source's name)
HCC-2998 = assay: NCI60 five-dose screen; format: cell-based; conditions: Homo sapiens, HCC-2998, colon cancer; for CC50: read-out: LC50 (the source's name)
HCT-116 = assay: NCI60 five-dose screen; format: cell-based; conditions: Homo sapiens, HCT-116, colon cancer; for CC50: read-out: LC50 (the source's name)
KM12 = assay: NCI60 five-dose screen; format: cell-based; conditions: Homo sapiens, KM12, colon cancer; for CC50: read-out: LC50 (the source's name)
SW-620 = assay: NCI60 five-dose screen; format: cell-based; conditions: Homo sapiens, SW-620, colon cancer; for CC50: read-out: LC50 (the source's name)
SF-539 = assay: NCI60 five-dose screen; format: cell-based; conditions: Homo sapiens, SF-539, CNS cancer; for CC50: read-out: LC50 (the source's name)
SNB-75 = assay: NCI60 five-dose screen; format: cell-based; conditions: Homo sapiens, SNB-75, CNS cancer; for CC50: read-out: LC50 (the source's name)
U251 = assay: NCI60 five-dose screen; format: cell-based; conditions: Homo sapiens, U-251, U251, CNS cancer; for CC50: read-out: LC50 (the source's name)
MALME-3M = assay: NCI60 five-dose screen; format: cell-based; conditions: Homo sapiens, melanoma; for CC50: read-out: LC50 (the source's name)
MDA-MB-435 = assay: NCI60 five-dose screen; format: cell-based, human; conditions: Homo sapiens; for CC50: MDA-MB-435, MDA-MB-435, melanoma, read-out: LC50 (the source's name); for GI50: MDA-MB-435, melanoma
SK-MEL-2 = assay: NCI60 five-dose screen; format: cell-based; conditions: Homo sapiens, SK-MEL-2, melanoma; for CC50: read-out: LC50 (the source's name)
SK-MEL-28 = assay: NCI60 five-dose screen; format: cell-based; conditions: Homo sapiens, SK-MEL-28, melanoma; for CC50: read-out: LC50 (the source's name)
SK-MEL-5 = assay: NCI60 five-dose screen; format: cell-based, human; conditions: Homo sapiens; for CC50: SK-MEL-5, SK-MEL-5, melanoma, read-out: LC50 (the source's name); for GI50: SK-MEL-5, melanoma
UACC-62 = assay: NCI60 five-dose screen; format: cell-based; conditions: Homo sapiens, UACC-62, melanoma; for CC50: read-out: LC50 (the source's name)
IGROV1 = assay: NCI60 five-dose screen; format: cell-based; conditions: Homo sapiens, IGROV-1; IGROV1, ovarian cancer
OVCAR-3 = assay: NCI60 five-dose screen; format: cell-based; conditions: Homo sapiens, OVCAR-3, ovarian cancer; for CC50: read-out: LC50 (the source's name)
OVCAR-5 = assay: NCI60 five-dose screen; format: cell-based; conditions: Homo sapiens, OVCAR-5, ovarian cancer; for CC50: read-out: LC50 (the source's name)
SK-OV-3 = assay: NCI60 five-dose screen; format: cell-based; conditions: Homo sapiens, SK-OV-3, ovarian cancer; for CC50: read-out: LC50 (the source's name)
A498 = assay: NCI60 five-dose screen; format: cell-based; conditions: Homo sapiens, A498, renal cancer; for CC50: read-out: LC50 (the source's name)
RXF 393 = assay: NCI60 five-dose screen; format: cell-based; conditions: Homo sapiens, RXF 393, renal cancer; for CC50: read-out: LC50 (the source's name)
TK-10 = assay: NCI60 five-dose screen; format: cell-based; conditions: Homo sapiens, TK-10, renal cancer; for CC50: read-out: LC50 (the source's name)
UO-31 = assay: NCI60 five-dose screen; format: cell-based; conditions: Homo sapiens, UO-31, renal cancer; for CC50: read-out: LC50 (the source's name)
MCF7 = assay: NCI60 five-dose screen; format: cell-based; conditions: Homo sapiens, MCF7, breast cancer; for CC50: read-out: LC50 (the source's name)
MDA-MB-231/ATCC = assay: NCI60 five-dose screen; format: cell-based; conditions: Homo sapiens, breast cancer; for CC50: read-out: LC50 (the source's name)
HS 578T = assay: NCI60 five-dose screen; format: cell-based; conditions: Homo sapiens, breast cancer; for CC50: read-out: LC50 (the source's name)
T-47D = assay: NCI60 five-dose screen; format: cell-based; conditions: Homo sapiens, T47D, breast cancer; for CC50: read-out: LC50 (the source's name)
[1] = test system: T47D breast cancer cell line; assay: Cytotoxicity MTT assay, T47D; format: cell-based, human; conditions: Homo sapiens, T47D; MTT, 48 hours
Outline: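 Both lines were handled identically: 10 000 cells per well, overnight growth, 48 h with compound at the chosen concentrations, then 0.5 mg mL^−1 MTT for 3 h. Dissolved formazan was quantified at 570 nm against vehicle-treated wells.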

## CCc1ccc(/C=N/NC(=O)c2[nH]c3ccc(Br)cc3c2-c2ccccc2)[nH]1 [Derivative 3s, (E)-5-Bromo-N′-((5-ethyl-1H-pyrrol-2-yl)methylene)-3-phenyl-1H-indole-2-carbohydrazide]
CCRF-CEM
  GI50: 0.375 µM
  CC50: > 100 µM
HL-60 (TB)
  GI50: 0.235 µM
  CC50: > 100 µM
K-562
  GI50: 0.338 µM
  CC50: > 100 µM
RPMI-8226
  GI50: 0.375 µM
  CC50: > 100 µM
NCI-H23
  GI50: 0.484 µM
  CC50: 42.6 µM
HCC-2998
  GI50: 1.45 µM
  CC50: 35.1 µM
HCT-116
  GI50: 0.325 µM
  CC50: 31.9 µM
KM12
  GI50: 0.289 µM
  CC50: 37.5 µM
SW-620
  GI50: 0.558 µM
  CC50: 43.2 µM
SF-539
  GI50: 0.225 µM
  CC50: 29.8 µM
SNB-75
  GI50: 0.285 µM
  CC50: 54.1 µM
U251
  GI50: 0.329 µM
  CC50: 36.7 µM
MALME-3M
  GI50: 0.88 µM
  CC50: 46.5 µM
MDA-MB-435
  CC50: 34 µM
  GI50: 0.227 µM
SK-MEL-2
  GI50: 0.647 µM
  CC50: 45.9 µM
SK-MEL-28
  GI50: 0.979 µM
  CC50: 49.8 µM
SK-MEL-5
  CC50: 10.1 µM
  GI50: 0.381 µM
UACC-62
  GI50: 0.381 µM
  CC50: 38.1 µM
IGROV1
  GI50: 0.612 µM
  LC50 (concentration causing 50% net cell kill): 43.3 µM
OVCAR-3
  GI50: 0.356 µM
  CC50: 36.1 µM
OVCAR-5
  GI50: 0.573 µM
  CC50: 38.7 µM
SK-OV-3
  GI50: 0.514 µM
  CC50: 50.1 µM
A498
  GI50: 5.59 µM
  CC50: 47.2 µM
RXF 393
  GI50: 0.194 µM
  CC50: 28.9 µM
TK-10
  GI50: 2.91 µM
  CC50: 46.3 µM
UO-31
  GI50: 0.644 µM
  CC50: 59.9 µM
MCF7
  GI50: 0.369 µM
  CC50: 45.9 µM
MDA-MB-231/ATCC
  GI50: 0.63 µM
  CC50: 48.4 µM
HS 578T
  GI50: 0.294 µM
  CC50: > 100 µM
T-47D
  GI50: 0.681 µM
  CC50: 52.7 µM
[1]
  IC50: 3.8 ± 1 µM

## CCc1c[nH]c(/C=N/NC(=O)c2[nH]c3ccc(Br)cc3c2-c2ccccc2)c1 [Derivative 3t, (E)-5-Bromo-N′-((4-ethyl-1H-pyrrol-2-yl)methylene)-3-phenyl-1H-indole-2-carbohydrazide]
CCRF-CEM
  GI50: 0.368 µM
  CC50: > 100 µM
HL-60 (TB)
  GI50: 0.237 µM
  CC50: 91.9 µM
K-562
  GI50: 0.348 µM
  CC50: > 100 µM
RPMI-8226
  GI50: 0.343 µM
  CC50: > 100 µM
NCI-H23
  GI50: 0.408 µM
  CC50: 37.4 µM
HCC-2998
  GI50: 0.342 µM
  CC50: 30.4 µM
HCT-116
  GI50: 0.385 µM
  CC50: 40.3 µM
KM12
  GI50: 0.325 µM
  CC50: 34.4 µM
SW-620
  GI50: 0.431 µM
  CC50: 42.5 µM
SF-539
  GI50: 0.203 µM
  CC50: 19.6 µM
SNB-75
  GI50: 0.44 µM
  CC50: 37.8 µM
U251
  GI50: 0.373 µM
  CC50: 38.2 µM
MALME-3M
  GI50: 1.72 µM
  CC50: 48 µM
MDA-MB-435
  CC50: 38.7 µM
  GI50: 0.23 µM
SK-MEL-2
  GI50: 0.454 µM
  CC50: 43.8 µM
SK-MEL-28
  GI50: 0.839 µM
  CC50: 46.6 µM
SK-MEL-5
  CC50: 6.96 µM
  GI50: 0.279 µM
UACC-62
  GI50: 0.442 µM
  CC50: 32.1 µM
IGROV1
  GI50: 0.888 µM
  LC50 (concentration causing 50% net cell kill): 48.6 µM
OVCAR-3
  GI50: 0.316 µM
  CC50: 41.7 µM
OVCAR-5
  GI50: 0.337 µM
  CC50: 37.2 µM
SK-OV-3
  GI50: 0.922 µM
  CC50: 35.4 µM
A498
  GI50: 13.7 µM
  CC50: 54.5 µM
RXF 393
  GI50: 0.217 µM
  CC50: 21 µM
TK-10
  GI50: 2.83 µM
  CC50: 42.1 µM
UO-31
  GI50: 1 µM
  CC50: 40.7 µM
MCF7
  GI50: 0.375 µM
  CC50: 33.8 µM
MDA-MB-231/ATCC
  GI50: 0.311 µM
  CC50: 42.4 µM
HS 578T
  GI50: 0.3 µM
  CC50: 87.3 µM
T-47D
  GI50: 1.59 µM
  CC50: 39.3 µM
[1]
  IC50: 4.6 ± 2.9 µM
